In data set [1] the target is acetylcholine esterase (AChE) (Electrophorus electricus, UniProt O42275). It is filed as biochemical.
Substrate in data set [2]: CC(=O)SCC[N+](C)(C)C
The experiment in a line: KM of AChE towards acetylthiocholine in solution. In kind it is biochemical. Conditions: other: AChE in solution. As for the experimental part:
The KM value of the AChE linked to the CdS nanoparticles towards acetylthiocholine, (1), is KM=5 mM. This value is higher than the KM=0.13 mM of ACHE and (1) in solution. The higher KM value for the nanoparticle-immobilized ACHE may be attributed to slight deactivation and structural perturbation of the biocatalyst as a result of surface linkage.

acetylcholine esterase (AChE), sequence (O42275 24-633): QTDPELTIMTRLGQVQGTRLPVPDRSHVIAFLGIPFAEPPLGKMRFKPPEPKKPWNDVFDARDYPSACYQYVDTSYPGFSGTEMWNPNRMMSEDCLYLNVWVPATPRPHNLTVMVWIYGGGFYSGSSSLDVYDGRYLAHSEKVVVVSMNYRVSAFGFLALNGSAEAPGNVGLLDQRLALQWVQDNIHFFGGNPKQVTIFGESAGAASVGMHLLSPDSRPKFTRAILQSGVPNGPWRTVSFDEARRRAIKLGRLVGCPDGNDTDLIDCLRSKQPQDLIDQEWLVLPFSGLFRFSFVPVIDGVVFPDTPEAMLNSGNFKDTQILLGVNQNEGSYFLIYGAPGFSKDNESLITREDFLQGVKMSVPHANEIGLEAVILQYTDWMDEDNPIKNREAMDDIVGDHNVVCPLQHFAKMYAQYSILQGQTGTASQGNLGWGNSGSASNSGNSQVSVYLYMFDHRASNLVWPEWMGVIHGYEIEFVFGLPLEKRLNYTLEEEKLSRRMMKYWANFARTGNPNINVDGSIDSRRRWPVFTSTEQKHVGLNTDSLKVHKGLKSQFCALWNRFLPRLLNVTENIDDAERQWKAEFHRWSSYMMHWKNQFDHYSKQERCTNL

`C=CC[N+](C)(C)c1ccc(CCC(=O)CCc2ccc([N+](C)(C)CC=C)cc2)cc1` [(3), 1,5-bis(4-allyldimethylammoniumphenyl)pentane-3-one dibromide]: in data set [1], the “effect on photocurrent with increasing concentration” value is on record as “decreases the photocurrent”, the mode of inhibition entry is listed as “competitive inhibitor” and the “reversibility: photocurrent after washing off the inhibitor” value is on record as “almost restores the initial photocurrent”.

B1: AChE (Homo sapiens) (protein)
chain: EGREDAELLVTVRGGRLRGIRLKTPGGPVSAFLGIPFAEPPMGPRRFLPPEPKQPWSGVVDATTFQSVCYQYVDTLYPGFEGTEMWNPNRELSEDCLYLNVWTPYPRPTSPTPVLVWIYGGGFYSGASSLDVYDGRFLVQAERTVLVSMNYRVGAFGFLALPGSREAPGNVGLLDQRLALQWVQENVAAFGGDPTSVTLFGESAGAASVGMHLLSPPSRGLFHRAVLQSGAPNGPWATVGMGEARRRATQLAHLVGCPPGGTGGNDTELVACLRTRPAQVLVNHEWHVLPQESVFRFSFVPVVDGDFLSDTPEALINAGDFHGLQVLVGVVKDEGSYFLVYGAPGFSKDNESLISRAEFLAGVRVGVPQVSDLAAEAVVLHYTDWLHPEDPARLREALSDVVGDHNVVCPVAQLAGRLAAQGARVYAYVFEHRASTLSWPLWMGVPHGYEIEFIFGIPLDPSRNYTAEEKIFAQRLMRYWANFARTGDPNEPRDPKAPQWPPYTAGAQQYVSLDLRPLEVRRGLRAQACAFWNRFLPKLLSATDTLDEAERQWKAEFHRWSSYMVHWKNQFDHYSKQDRCSDL
A word on the Km: it is the substrate concentration at which the rate is half of its maximum. As for B1, the Km in data set [2] was determined as 0.13 mM.

(Values after patent US20060199240A1, “Biosensor and method comprising enzymes immobilized on semiconductors” (Yissum Research Development Company of the Hebrew …, priority 2002, published 2006).)
